According to paper PMC10746543, “Design principles for cyclin K molecular glue degraders” (Nature Chemical Biology, 2023):
“And” between values parts separate entries of the source, which are not always exact repeats. Identical values can stand only once. Like-named read-outs stand apart in the source and are kept apart here.

Columns and labels:
[1] = biological target: T1, CDK12–cyclin K and DDB1 (Homo sapiens, UniProt Q16531+Q9NYV4, K965R); test: TR-FRET ternary complex formation assay (compound titration); type: binding; conditions: for TR-FRET signal at compound concentration: replicate titrations
T1 construct: His6–CDK12 (a.a. 713–1,052); full-length or beta-propeller B domain deletion (ΔBPB: a.a. 396–705 deleted) constructs of His6–DDB1ΔBPB, StrepII–Avi–DDB1, or His6–Spy–DDB1; made in house; host or cells: Trichoplusia ni High Five insect cells (baculovirus)
T1 sequence (Q9NYV4 713-1052 K965R): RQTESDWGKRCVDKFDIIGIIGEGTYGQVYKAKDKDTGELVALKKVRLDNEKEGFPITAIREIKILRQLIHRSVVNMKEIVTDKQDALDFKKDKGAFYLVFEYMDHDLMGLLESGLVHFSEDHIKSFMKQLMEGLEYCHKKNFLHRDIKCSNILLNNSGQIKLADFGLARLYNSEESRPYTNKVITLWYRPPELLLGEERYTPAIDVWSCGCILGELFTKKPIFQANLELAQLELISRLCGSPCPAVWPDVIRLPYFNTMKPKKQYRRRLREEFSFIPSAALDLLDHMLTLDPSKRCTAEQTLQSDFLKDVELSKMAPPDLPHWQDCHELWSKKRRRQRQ
T1 sequence (O75909 1-267 partner): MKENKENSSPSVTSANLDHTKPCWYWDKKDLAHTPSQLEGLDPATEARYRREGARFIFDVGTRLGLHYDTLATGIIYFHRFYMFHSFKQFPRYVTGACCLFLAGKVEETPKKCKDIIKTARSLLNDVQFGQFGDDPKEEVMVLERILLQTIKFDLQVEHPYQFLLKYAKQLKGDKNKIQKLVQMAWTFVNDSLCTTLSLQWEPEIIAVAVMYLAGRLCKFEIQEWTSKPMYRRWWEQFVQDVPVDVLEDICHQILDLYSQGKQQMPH
T1 sequence (Q16531 whole entry): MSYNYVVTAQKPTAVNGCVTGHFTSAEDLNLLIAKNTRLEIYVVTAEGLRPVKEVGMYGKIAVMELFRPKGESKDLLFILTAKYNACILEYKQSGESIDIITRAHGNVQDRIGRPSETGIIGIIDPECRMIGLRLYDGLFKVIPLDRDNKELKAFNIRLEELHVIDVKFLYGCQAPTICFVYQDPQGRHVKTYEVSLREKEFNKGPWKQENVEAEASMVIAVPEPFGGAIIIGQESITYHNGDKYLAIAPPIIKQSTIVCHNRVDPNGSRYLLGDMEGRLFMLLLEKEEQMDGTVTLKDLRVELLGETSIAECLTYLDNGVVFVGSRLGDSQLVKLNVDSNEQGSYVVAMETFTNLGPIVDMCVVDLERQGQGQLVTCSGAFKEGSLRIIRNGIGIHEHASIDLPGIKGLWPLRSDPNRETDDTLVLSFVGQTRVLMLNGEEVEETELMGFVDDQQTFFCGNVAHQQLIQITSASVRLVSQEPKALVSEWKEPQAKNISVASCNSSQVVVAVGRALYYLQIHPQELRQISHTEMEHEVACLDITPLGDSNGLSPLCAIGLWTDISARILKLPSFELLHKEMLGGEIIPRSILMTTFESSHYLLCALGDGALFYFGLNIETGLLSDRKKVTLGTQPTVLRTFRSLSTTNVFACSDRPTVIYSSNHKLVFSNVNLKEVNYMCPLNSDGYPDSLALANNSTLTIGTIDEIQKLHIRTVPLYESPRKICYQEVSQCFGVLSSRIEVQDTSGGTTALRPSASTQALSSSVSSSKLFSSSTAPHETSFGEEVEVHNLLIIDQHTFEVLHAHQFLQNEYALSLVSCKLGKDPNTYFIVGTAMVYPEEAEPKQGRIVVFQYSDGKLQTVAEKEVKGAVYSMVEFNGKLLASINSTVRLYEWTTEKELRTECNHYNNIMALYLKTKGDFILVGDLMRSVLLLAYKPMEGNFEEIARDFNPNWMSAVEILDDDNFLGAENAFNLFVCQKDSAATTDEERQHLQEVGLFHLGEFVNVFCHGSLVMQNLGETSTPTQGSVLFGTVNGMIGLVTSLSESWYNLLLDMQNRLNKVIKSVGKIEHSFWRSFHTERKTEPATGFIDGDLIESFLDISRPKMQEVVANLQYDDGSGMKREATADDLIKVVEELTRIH
How it was run: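 A time delay of 70 μs preceded acquisition, limiting background fluorescence; the ratio of emission at 520 versus 490 nm gave the TR-FRET value.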

[2] = test system: cyclin K–eGFP degradation reporter; test: Cyclin K reporter stability analysis (dual-color cyclin K–eGFP reporter); type: cell-based, human
How it was run: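 First, reporter-bearing HEK293T–Cas9 cells are plated at 1 × 10^6 ml^−1. Next, drug or vehicle is added for 5 h. Finally, geometric-mean eGFP and mCherry signals of round, mCherry-positive cells are measured cytometrically, and their ratio is referenced to the DMSO average.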

[3] = test system: HEK293T cells; test: Drug sensitivity assay (CellTiter-Glo viability) with or without MLN4924 pretreatment; type: cell-based, human; conditions: Supplementary Table 2; for EC50: Homo sapiens, HEK-293T, HEK293T viability, 72 h, compound alone, read-out: Cellular assays EC50; for Toxicity rescue: MLN4924-mediated cytotoxicity rescue, 10 µM used where n.d.
How it was run: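 Cas9-expressing HEK293T cells receive either vehicle or 100 nM MLN4924, then compounds 2 h afterwards. After three days, luminescence-based viability is measured and calculated relative to DMSO.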

[4] = compound concentration 79.2001 nM
[5] = compound concentration 158.4 nM
[6] = compound concentration 309.6 nM
[7] = compound concentration 626.401 nM
[8] = compound concentration 1252.8 nM
[9] = compound concentration 9936.01 nM
[10] = compound concentration 20016 nM
[11] = in vitro complex formation, 50 nM CDK12–cyclin K, 100 nM DDB1, text and figures, read-out: TR-FRET EC50
[12] = sheet MOESM7, read-out: log TR-FRET EC50 (converted)
[13] = Supplementary Table 2, HEK293T cycK-eGFP reporter, 5 h, read-out: Cellular assays DC50
[14] = compound concentration 0.468 nM
[15] = compound concentration 7.92001 nM
[16] = compound concentration 15.84 nM
[17] = compound concentration 30.96 nM
[18] = compound concentration 62.6401 nM
[19] = compound concentration 125.28 nM
[20] = compound concentration 244.8 nM
[21] = compound concentration 993.601 nM
[22] = compound concentration 2001.6 nM

| TR-FRET signal, individual replicate ([1]; compound concentration 4.68 nM) | TR-FRET signal, individual replicate ([1]; compound concentration 21.6 nM) | TR-FRET signal, individual replicate ([1]; compound concentration 36 nM) | TR-FRET signal, individual replicate [1, 4] | TR-FRET signal, individual replicate [1, 5] | TR-FRET signal, individual replicate [1, 6] | TR-FRET signal, individual replicate [1, 7] | TR-FRET signal, individual replicate [1, 8] | TR-FRET signal, individual replicate ([1]; compound concentration 2448 nM) | TR-FRET signal, individual replicate [1, 9] | TR-FRET signal, individual replicate [1, 10] | EC50 [1, 11] | EC50 [1, 12] | DC50 [2, 13] | TR-FRET signal at compound concentration [1, 14] | TR-FRET signal at compound concentration ([1]; compound concentration 2.16 nM) | TR-FRET signal at compound concentration ([1]; compound concentration 3.6 nM) | TR-FRET signal at compound concentration [1, 15] | SMILES | EC50 [3] | Toxicity rescue [3] | also measured |
| --- | --- | --- | --- | --- | --- | --- | --- | --- | --- | --- | --- | --- | --- | --- | --- | --- | --- | --- | --- | --- | --- |
| 0.1682 and 0.1874 | 0.2977 and 0.3197 | 0.5215 and 0.541 | 0.8673 and 0.9745 | 1.23 and 1.324 | 1.677 and 1.781 | 2.096 and 2.217 | 2.231 and 2.525 | 2.525 and 2.68 | 2.633 and 2.833 | 2.343 and 2.482 | 182 nM | 182 nM | > 10000 nM | – | – | – | – | CC[C@H](CO)Nc1nc(NCCCCCc2cccc3ccccc23)c2ncn(C(C)C)c2n1 [DS15] | > 10000 nM | 0% | TR-FRET signal at compound concentration ([1]; compound concentration 4.68 nM): 0.1682 and 0.1874; TR-FRET signal at compound concentration ([1]; compound concentration 21.6 nM): 0.2977 and 0.3197; TR-FRET signal at compound concentration ([1]; compound concentration 36 nM): 0.5215 and 0.541; TR-FRET signal at compound concentration [1, 4]: 0.8673 and 0.9745; TR-FRET signal at compound concentration [1, 5]: 1.23 and 1.324; TR-FRET signal at compound concentration [1, 6]: 1.677 and 1.781; TR-FRET signal at compound concentration [1, 7]: 2.096 and 2.217; TR-FRET signal at compound concentration [1, 8]: 2.231 and 2.525; TR-FRET signal at compound concentration ([1]; compound concentration 2448 nM): 2.525 and 2.68; TR-FRET signal at compound concentration [1, 9]: 2.633 and 2.833; TR-FRET signal at compound concentration [1, 10]: 2.343 and 2.482 |
| 0.1301 and 0.1411 | 0.1343 and 0.1464 | 0.1332 and 0.1524 | 0.1391 and 0.1534 | 0.1406 and 0.1374 | 0.0615 and 0.162 | 0.1683 and 0.1829 | 0.1869 and 0.2017 | 0.194 and 0.2082 | 0.2263 and 0.2491 | 0.2226 and 0.3132 | – | – | > 10000 nM | – | – | – | – | CC[C@H](CO)Nc1nc(NC)c2ncn(C(C)C)c2n1 [DS23] | > 10000 nM | 0% | DDB1–CDK12 complex formation, result in words ([1]; in vitro TR-FRET): did not appreciably promote the binding |
| – | – | – | – | – | – | – | – | – | – | – | 78 ± 2 nM | 78.2 nM | – | 0.1746 and 0.2408 | 0.2584 and 0.2684 | 0.3148 and 0.3094 | 0.4213 and 0.4118 | CC[C@H](CO)Nc1nc(NCc2ccc(-c3ccccn3)c(F)c2)c2ncn(C(C)C)c2n1 [DS24] | 794 nM | 270% | TR-FRET signal at compound concentration [1, 16]: 0.6123 and 0.5731; TR-FRET signal at compound concentration [1, 17]: 1.004 and 0.9206; TR-FRET signal at compound concentration [1, 18]: 1.811 and 1.633; TR-FRET signal at compound concentration [1, 19]: 2.96 and 2.707; TR-FRET signal at compound concentration [1, 20]: 3.542 and 3.534; TR-FRET signal at compound concentration [1, 21]: 3.814 and 3.947; TR-FRET signal at compound concentration [1, 22]: 3.863 and 4.055; EC50 ([1]; source data sheet correlations, read-out: TR-FRET EC50): 78.2 nM; DC50 ([2]; source data sheet correlations, read-out: DC50): 172 nM |
| – | – | – | – | – | – | – | – | – | – | – | 15 ± 1 nM | – | 90 nM | 0.2617 and 0.2677 | 0.4243 and 0.428 | 0.7393 and 0.7415 | 1.2835 and 1.267 | CC[C@H](CO)Nc1nc(NCc2ccc(-c3ccc(C)s3)cc2)c2ncn(C(C)C)c2n1 [DS25] | 267 nM | 795% | EC50 ([1]; Supplementary Table 2, read-out: TR-FRET EC50 TR-FRET): 15 nM; TR-FRET signal at compound concentration [1, 16]: 1.9468 and 1.95; TR-FRET signal at compound concentration [1, 17]: 2.593 and 2.662; TR-FRET signal at compound concentration [1, 18]: 3.101 and 3.186; TR-FRET signal at compound concentration [1, 19]: 3.361 and 3.544; TR-FRET signal at compound concentration [1, 20]: 3.469 and 3.727; TR-FRET signal at compound concentration [1, 21]: 3.278 and 3.742; TR-FRET signal at compound concentration [1, 22]: 3.339 and 3.592 |
